Article PMC10178848, “Modulating fast skeletal muscle contraction protects skeletal muscle in animal models of Duchenne muscular dystrophy” (The Journal of Clinical Investigation, 2023)
Where two headings read alike, the source gives them in different places.

System: GRMD plasma proteins
Format: in vivo, dog
[1] = Post-Treatment to GRMD baseline, Decreased in GRMD

## O=c1ccc(-c2cnc(OCC(F)(F)F)nc2)nn1Cc1cncc(F)c1 [EDG-5506]
Human Chorionic Gonadotropin (CGA CGB), Post-Treatment to GRMD baseline
  Change from GRMD Baseline (fraction): 2.5964 fraction
Insulin (INS), EDG-5506 treatment to GRMD baseline
  Change from GRMD Baseline (fraction): 0.2426 fraction
Insulin (INS), Post-Treatment to GRMD baseline
  Change from GRMD Baseline (fraction): 0.0736 fraction
Interferon lambda-2 (IFNL2), EDG-5506 treatment to GRMD baseline
  Change from GRMD Baseline (fraction): 0.1683 fraction
Interferon lambda-2 (IFNL2), Post-Treatment to GRMD baseline
  Change from GRMD Baseline (fraction): 0.4121 fraction
Interleukin-12 (IL12A IL12B), EDG-5506 treatment to GRMD baseline
  Change from GRMD Baseline (fraction): 0.1563 fraction
Interleukin-12 (IL12A IL12B), Post-Treatment to GRMD baseline
  Change from GRMD Baseline (fraction): 0.0477 fraction
Leucine-rich repeat transmembrane protein FLRT2 (FLRT2), EDG-5506 treatment to GRMD baseline
  Change from GRMD Baseline (fraction): 0.1078 fraction
Leucine-rich repeat transmembrane protein FLRT2 (FLRT2), Post-Treatment to GRMD baseline
  Change from GRMD Baseline (fraction): -0.1244 fraction
Megakaryocyte-associated tyrosine-protein kinase (MATK), EDG-5506 treatment to GRMD baseline
  Change from GRMD Baseline (fraction): 0.083 fraction
Megakaryocyte-associated tyrosine-protein kinase (MATK), Post-Treatment to GRMD baseline
  Change from GRMD Baseline (fraction): 0.0043 fraction
Mitogen-activated protein kinase 9 (MAPK9), EDG-5506 treatment to GRMD baseline
  Change from GRMD Baseline (fraction): 0.1873 fraction
Mitogen-activated protein kinase 9 (MAPK9), Post-Treatment to GRMD baseline
  Change from GRMD Baseline (fraction): -0.0197 fraction
Myc proto-oncogene protein (MYC), EDG-5506 treatment to GRMD baseline
  Change from GRMD Baseline (fraction): 0.0043 fraction
Myc proto-oncogene protein (MYC), Post-Treatment to GRMD baseline
  Change from GRMD Baseline (fraction): 0.0245 fraction
Nascent polypeptide-associated complex subunit alpha (NACA), EDG-5506 treatment to GRMD baseline
  Change from GRMD Baseline (fraction): -0.0939 fraction
Nascent polypeptide-associated complex subunit alpha (NACA), Post-Treatment to GRMD baseline
  Change from GRMD Baseline (fraction): -0.019 fraction
Neurexin-1-beta (NRXN1), EDG-5506 treatment to GRMD baseline
  Change from GRMD Baseline (fraction): 0.163 fraction
Neurexin-1-beta (NRXN1), Post-Treatment to GRMD baseline
  Change from GRMD Baseline (fraction): 0.0798 fraction
Neuropilin-1 (NRP1), EDG-5506 treatment to GRMD baseline
  Change from GRMD Baseline (fraction): -0.1066 fraction
Neuropilin-1 (NRP1), Post-Treatment to GRMD baseline
  Change from GRMD Baseline (fraction): -0.2144 fraction
Neutrophil elastase (ELANE), EDG-5506 treatment to GRMD baseline
  Change from GRMD Baseline (fraction): 0.113 fraction
Neutrophil elastase (ELANE), Post-Treatment to GRMD baseline
  Change from GRMD Baseline (fraction): 0.0205 fraction
Neutrophil-activating peptide 2 (PPBP), EDG-5506 treatment to GRMD baseline
  Change from GRMD Baseline (fraction): -0.0999 fraction
Neutrophil-activating peptide 2 (PPBP), Post-Treatment to GRMD baseline
  Change from GRMD Baseline (fraction): 0.0464 fraction
Osteocalcin (BGLAP), EDG-5506 treatment to GRMD baseline
  Change from GRMD Baseline (fraction): 0.2208 fraction
Osteocalcin (BGLAP), Post-Treatment to GRMD baseline
  Change from GRMD Baseline (fraction): -0.0043 fraction
PILR alpha-associated neural protein (PIANP), EDG-5506 treatment to GRMD baseline
  Change from GRMD Baseline (fraction): 0.0458 fraction
PILR alpha-associated neural protein (PIANP), Post-Treatment to GRMD baseline
  Change from GRMD Baseline (fraction): -0.0155 fraction
Periostin (POSTN), EDG-5506 treatment to GRMD baseline
  Change from GRMD Baseline (fraction): 0.1077 fraction
Periostin (POSTN), Post-Treatment to GRMD baseline
  Change from GRMD Baseline (fraction): -0.1102 fraction
Pleiotrophin (PTN), EDG-5506 treatment to GRMD baseline
  Change from GRMD Baseline (fraction): 0.0122 fraction
Pleiotrophin (PTN), Post-Treatment to GRMD baseline
  Change from GRMD Baseline (fraction): -0.0998 fraction
[1]
  3-hydroxyisobutyrate dehydrogenase, mitochondrial (HIBADH): Change from GRMD Baseline (fraction): 0.0399 fraction
  14-3-3 protein beta/alpha (YWHAB): Change from GRMD Baseline (fraction): -0.1281 fraction
  14-3-3 protein sigma (SFN): Change from GRMD Baseline (fraction): -0.1134 fraction
  72 kDa type IV collagenase (MMP2): Change from GRMD Baseline (fraction): -0.3542 fraction
  Adrenomedullin (ADM): Change from GRMD Baseline (fraction): -0.0931 fraction
  Aggrecan core protein (ACAN): Change from GRMD Baseline (fraction): -0.1233 fraction
  Alpha-synuclein (SNCA): Change from GRMD Baseline (fraction): -0.0439 fraction
  Apolipoprotein B (APOB): Change from GRMD Baseline (fraction): -0.0228 fraction
  Appetite-regulating hormone (GHRL): Change from GRMD Baseline (fraction): 0.0233 fraction
  Atrial natriuretic factor (NPPA): Change from GRMD Baseline (fraction): 0.0027 fraction
  BDNF/NT-3 growth factors receptor (NTRK2): Change from GRMD Baseline (fraction): -0.0065 fraction
  BH3-interacting domain death agonist (BID): Change from GRMD Baseline (fraction): 0.0184 fraction
  Bcl-2-related protein A1 (BCL2A1): Change from GRMD Baseline (fraction): 0.0661 fraction
  Bone morphogenetic protein 6 (BMP6): Change from GRMD Baseline (fraction): -0.0925 fraction
  Bone morphogenetic protein 10 (BMP10): Change from GRMD Baseline (fraction): -0.0513 fraction
  C-X-C motif chemokine 10 (CXCL10): Change from GRMD Baseline (fraction): 0.0358 fraction
  C-type mannose receptor 2 (MRC2): Change from GRMD Baseline (fraction): -0.1031 fraction
  CD166 antigen (ALCAM): Change from GRMD Baseline (fraction): 0.0066 fraction
  Cadherin-5 (CDH5): Change from GRMD Baseline (fraction): -0.1425 fraction
  Carboxypeptidase E (CPE): Change from GRMD Baseline (fraction): 0.0109 fraction
  Cell adhesion molecule 1 (CADM1): Change from GRMD Baseline (fraction): -0.1579 fraction
  Chromogranin-A (CHGA): Change from GRMD Baseline (fraction): 0.0248 fraction
  Ciliary neurotrophic factor receptor subunit alpha (CNTFR): Change from GRMD Baseline (fraction): -0.0624 fraction
  Ck-beta-8-1 (CCL23): Change from GRMD Baseline (fraction): 0.0454 fraction
  Coiled-coil domain-containing protein 80 (CCDC80): Change from GRMD Baseline (fraction): 0.0372 fraction
  Collagen alpha-1(VIII) chain (COL8A1): Change from GRMD Baseline (fraction): 0.1221 fraction
  Collagenase 3 (MMP13): Change from GRMD Baseline (fraction): -0.3148 fraction
  Collectin-12 (COLEC12): Change from GRMD Baseline (fraction): -0.0046 fraction
  Complement component C1q receptor (CD93): Change from GRMD Baseline (fraction): -0.1418 fraction
  Complement decay-accelerating factor (CD55): Change from GRMD Baseline (fraction): 0.0605 fraction
  Contactin-1 (CNTN1): Change from GRMD Baseline (fraction): -0.0113 fraction
  Corticotropin (POMC): Change from GRMD Baseline (fraction): 0.0912 fraction
  Cytotoxic and regulatory T-cell molecule (CRTAM): Change from GRMD Baseline (fraction): 0.2824 fraction
  Dickkopf-related protein 1 (DKK1): Change from GRMD Baseline (fraction): -0.0925 fraction
  Dickkopf-related protein 4 (DKK4): Change from GRMD Baseline (fraction): -0.1272 fraction
  E3 ubiquitin-protein ligase ZNRF3 (ZNRF3): Change from GRMD Baseline (fraction): 0.0469 fraction
  Ephrin type-A receptor 5 (EPHA5): Change from GRMD Baseline (fraction): -0.1823 fraction
  Ephrin-A2 (EFNA2): Change from GRMD Baseline (fraction): -0.0773 fraction
  Ephrin-A5 (EFNA5): Change from GRMD Baseline (fraction): -0.1613 fraction
  Epidermal growth factor receptor (EGFR): Change from GRMD Baseline (fraction): -0.0135 fraction
  Estradiol 17-beta-dehydrogenase 1 (HSD17B1): Change from GRMD Baseline (fraction): 0.0729 fraction
  Fatty acid-binding protein, epidermal (FABP5): Change from GRMD Baseline (fraction): 0.3761 fraction
  Fc receptor-like protein 3 (FCRL3): Change from GRMD Baseline (fraction): -0.0287 fraction
  GDNF family receptor alpha-2 (GFRA2): Change from GRMD Baseline (fraction): -0.0362 fraction
  Galectin-8 (LGALS8): Change from GRMD Baseline (fraction): 0.1492 fraction
  Galectin-9 (LGALS9): Change from GRMD Baseline (fraction): -0.0107 fraction
  Gamma-enolase (ENO2): Change from GRMD Baseline (fraction): -0.0983 fraction
  Gastrin-releasing peptide (GRP): Change from GRMD Baseline (fraction): 0.0411 fraction
  Glutamate carboxypeptidase 2 (FOLH1): Change from GRMD Baseline (fraction): 0.145 fraction
  Glypican-2 (GPC2): Change from GRMD Baseline (fraction): 0.075 fraction
  Gremlin-1 (GREM1): Change from GRMD Baseline (fraction): 0.1318 fraction
  Growth/differentiation factor 8 (MSTN): Change from GRMD Baseline (fraction): 0.065 fraction
  Growth/differentiation factor 11/8 (GDF11 MSTN): Change from GRMD Baseline (fraction): -0.0539 fraction
  Hemoglobin (HBA1 HBB): Change from GRMD Baseline (fraction): -0.0209 fraction
  Heparin cofactor 2 (SERPIND1): Change from GRMD Baseline (fraction): 0.014 fraction
  Hepatitis A virus cellular receptor 2 (HAVCR2): Change from GRMD Baseline (fraction): 0.0719 fraction
  High affinity immunoglobulin gamma Fc receptor I (FCGR1A): Change from GRMD Baseline (fraction): 0.0477 fraction
  Histone-lysine N-methyltransferase EHMT2 (EHMT2): Change from GRMD Baseline (fraction): -0.0469 fraction
  Hyaluronan and proteoglycan link protein 1 (HAPLN1): Change from GRMD Baseline (fraction): -0.1275 fraction
  Insulin-like growth factor 1 receptor (IGF1R): Change from GRMD Baseline (fraction): -0.1027 fraction
  Integrin alpha-V: beta-5 complex (ITGAV ITGB5): Change from GRMD Baseline (fraction): 0.0267 fraction
  Interleukin-4 receptor subunit alpha (IL4R): Change from GRMD Baseline (fraction): 0.0286 fraction
  Interleukin-18-binding protein (IL18BP): Change from GRMD Baseline (fraction): -0.0841 fraction
  Interstitial collagenase (MMP1): Change from GRMD Baseline (fraction): 0.1983 fraction
  Leucine-rich repeat transmembrane neuronal protein 3 (LRRTM3): Change from GRMD Baseline (fraction): 0.0593 fraction
  Limbic system-associated membrane protein (LSAMP): Change from GRMD Baseline (fraction): -0.0633 fraction
  Lymphocyte activation gene 3 protein (LAG3): Change from GRMD Baseline (fraction): 0.8111 fraction
  Lysosome membrane protein 2 (SCARB2): Change from GRMD Baseline (fraction): 0.1572 fraction
  MHC class I polypeptide-related sequence B (MICB): Change from GRMD Baseline (fraction): 0.6204 fraction
  Matrilin-2 (MATN2): Change from GRMD Baseline (fraction): -0.1616 fraction
  Melanoma-derived growth regulatory protein (MIA): Change from GRMD Baseline (fraction): -0.1058 fraction
  Moesin (MSN): Change from GRMD Baseline (fraction): 0.1568 fraction
  Muellerian-inhibiting factor (AMH): Change from GRMD Baseline (fraction): 0.0468 fraction
  NKG2D ligand 1 (ULBP1): Change from GRMD Baseline (fraction): -0.0033 fraction
  NT-3 growth factor receptor (NTRK3): Change from GRMD Baseline (fraction): -0.1478 fraction
  Netrin receptor UNC5C (UNC5C): Change from GRMD Baseline (fraction): -0.0587 fraction
  Neurogenic locus notch homolog protein 2 (NOTCH2): Change from GRMD Baseline (fraction): 0.0095 fraction
  Neurogenic locus notch homolog protein 3 (NOTCH3): Change from GRMD Baseline (fraction): -0.0751 fraction
  Nuclear receptor subfamily 1 group D member 1 (NR1D1): Change from GRMD Baseline (fraction): 0.0266 fraction
  Phospholipase A2 (PLA2G1B): Change from GRMD Baseline (fraction): -0.0833 fraction
  Placenta growth factor (PGF): Change from GRMD Baseline (fraction): -0.1111 fraction
  Plasminogen (PLG): Change from GRMD Baseline (fraction): 0.0803 fraction
  PolyUbiquitin K63-linked (UBC): Change from GRMD Baseline (fraction): 0.2532 fraction
  Proteasome activator complex subunit 3 (PSME3): Change from GRMD Baseline (fraction): 0.0489 fraction
  Protein S100-A4 (S100A4): Change from GRMD Baseline (fraction): -0.1235 fraction
  Protein amnionless (AMN): Change from GRMD Baseline (fraction): 0.002 fraction
